For assay [1], the target named is MASP-2 CCP2-SP (Homo sapiens (Human), UniProt O00187). Briefly: MASP-2 co-crystallization, X-ray crystallography and structure analysis (H-bonds, van der Waals contacts).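 For Ligand-pharmacophore element distance, pharmacophore element C2: distance from averaged pharmacophore element to bound ligand; missing value means element absent.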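 For Ligand-pharmacophore element distance, pharmacophore element C3: distance from averaged pharmacophore element to bound ligand; missing value means element absent.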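 For Ligand-pharmacophore element distance, pharmacophore element C4: distance from averaged pharmacophore element to bound ligand; missing value means element absent.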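 For Ligand-pharmacophore element distance, pharmacophore element C5: distance from averaged pharmacophore element to bound ligand; missing value means element absent.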 On the set-up: van der Waals contact distance, MASP-2 HIS 483 atom CD2 / van der Waals contact distance, MASP-2 HIS 483 atom NE2 / van der Waals contact distance, SER 654 C to compound atom / van der Waals contact distance, SER 654 O to compound atom / van der Waals contact distance, TRP 655 C to compound atom / van der Waals contact distance, MASP-2 GLY 528 atom CA / van der Waals contact distance TRP 655 atom CZ3 / van der Waals contact distance TRP 655 atom N / van der Waals contact distance TRP 655 atom CE3 / van der Waals contact distance GLY 656 atom C / van der Waals contact distance GLY 656 atom CA / van der Waals contact distance GLY 656 atom O / van der Waals contact distance, MASP-2 TYR 607 atom CD1 / van der Waals contact distance, MASP-2 PRO 606 atom O / d(C3,CA1) / d(CA1,N1)2 / d(H4,O1) / d(H4,O2) / d(O1,O2) / d(CA1,O2) / d(CA6,O1) / d(CA6,O2) / d(CA1,C5) / d(O2,H3) / d(N2,C2) / d(CA5,N2) / d(N2,C4) / d(N2,C6) / d(N2,CA3) / d(N2,O3) / d(O4,H2): unit not given beside the values. The settings on record: for H-bond distance to MASP-2 GLY 656 atom N: GLY 656 N; for H-bond distance to MASP-2 SER 654 atom O: SER 654 O; for van der Waals contact distance, MASP-2 HIS 483 atom CD2: Table A2-1; for van der Waals contact distance, MASP-2 amino acid atom to compound atom: ARG 630. In short, it runs like this: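 Soaked crystals of recombinant CCP2-SP (E. coli) yield the structures, phased by molecular replacement on 1Q3X pieces. Hydrophobic or nonbonded contacts can also cover atom pairs that are potential hydrogen bonds.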

For assay [2], the system named is Lectin Pathway. Briefly: Lectin Pathway Activation Assay in Human Serum (mannan-coated ELISA, C3c detection). The format is biochemical. The conditions noted are these: 1% human serum. Here is the method:
Microtiter ELISA plate was coated with mannan from Saccharomyces cerevisiae (Sigma-Aldrich, M7504) for overnight at 4° C. in coating buffer [15 mM Na2CO3, 35 mM NaHCO3].
(In general: In an ELISA, binding on a coated surface is turned into a signal by an enzyme label.)

Setting [3] is: Table A5-1 pharmacophore: distance between elements, S2/S1 region.
[4] abbreviates: Table A5-2 pharmacophore distance, S3/S4 region.
[5] abbreviates: Table A7-1, between pharmacophore elements of the bound compound.
Where [6] appears, read: Table A8-6, nearest protein atom in cell to the left.

The source of these data is US12195427B2, “MASP-2 inhibitors and methods of use” (priority 2018, dated 2025).

As a reminder, the IC50 is the concentration that inhibits the measured activity by half.

Where a name gives a salt, the structure may show the parent alone.

Chain of MASP-2 CCP2-SP (O00187 445-686): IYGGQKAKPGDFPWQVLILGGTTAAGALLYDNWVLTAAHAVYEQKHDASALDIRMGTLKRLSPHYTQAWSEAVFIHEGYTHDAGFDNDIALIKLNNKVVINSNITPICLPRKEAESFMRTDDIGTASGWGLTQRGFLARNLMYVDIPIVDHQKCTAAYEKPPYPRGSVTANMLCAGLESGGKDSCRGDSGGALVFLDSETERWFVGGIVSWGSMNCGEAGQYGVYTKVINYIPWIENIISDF
Chain of MASP-2 CCP2-SP (O00187 364-432 partner): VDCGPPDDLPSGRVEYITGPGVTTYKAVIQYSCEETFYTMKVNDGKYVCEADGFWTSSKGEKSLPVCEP

Regarding `C[C@H](NC(=O)[C@H]1C[C@@H](c2ccccc2)CCN1)C(=O)NCc1ccc(C(=N)N)cc1` (stereo in doubt) [compound 1065], the “H-bond distance to MASP-2 ASP 627 atom OD1” value in assay [1] (Table A1 (H-Bonds), ASP 627 OD1) is 3.14. The “H-bond distance to MASP-2 ASP 627 atom OD2” value in assay [1] (Table A1 (H-Bonds), ASP 627 OD2) is 3.08. Moreover, in assay [1] (Table A1 (H-Bonds)), the “H-bond distance to MASP-2 GLY 656 atom N” value amounted to 3.31 and the “H-bond distance to MASP-2 SER 654 atom O” value is given as 2.92. In assay [1], the “van der Waals contact distance, MASP-2 HIS 483 atom CD2” value is reported as 3.67. In assay [1] (Table A2-9, AA atoms CG, CZ), the “van der Waals contact distance, MASP-2 amino acid atom to compound atom” value was found to be 3.55. Also, in assay [1] (Table A2-11), the “van der Waals contact distance, SER 654 C to compound atom” value stood at 3.78 and the “van der Waals contact distance, VAL 653 CG1 to compound atom” value was 3.6. For the same molecule, in assay [1] (Table A2-12), the “van der Waals contact distance, TRP 655 CA to compound atom” value is 3.46. Moreover, the “van der Waals contact distance TRP 655 atom CE3” value in assay [1] (Table A2-13, MASP-2 TRP 655 CE3, compound atom in line below) is 3.6. The “Ligand-pharmacophore element distance, pharmacophore element C2” value in assay [1] (Table A4-1, element C2) was found to be 0.11. Also, in assay [1] (Table A4-1, element C3), the “Ligand-pharmacophore element distance, pharmacophore element C3” value turned out to be 0. In addition, the “Ligand-pharmacophore element distance, pharmacophore element C4” value in assay [1] (Table A4-1, element C4) turned out to be 0. The “Ligand-pharmacophore element distance, pharmacophore element C5” value in assay [1] (Table A4-1, element C5) is on record as 0. Also, the “Ligand-pharmacophore element distance, pharmacophore element C6” value in assay [1] (Table A4-1, element C6) is 0. Besides, in assay [1] (Table A4-1, element C7), the “Ligand-pharmacophore element distance, pharmacophore element C7” value is given as 0. Further, the “Ligand-pharmacophore element distance, pharmacophore element CA1” value in assay [1] (Table A4-1, element CA1) is 0.88. Further, the “Ligand-pharmacophore element distance, pharmacophore element CA2” value in assay [1] (Table A4-1, element CA2) is on record as 0.1. In assay [1] (Table A4-1, element CA3), the “Ligand-pharmacophore element distance, pharmacophore element CA3” value was found to be 0. The “Ligand-pharmacophore element distance, pharmacophore element CA4” value in assay [1] (Table A4-1, element CA4) is recorded as 0. For the same molecule, in assay [1] (Table A4-1, element CA5), the “Ligand-pharmacophore element distance, pharmacophore element CA5” value was 0. In assay [1] (Table A4-1, element CA6), the “Ligand-pharmacophore element distance, pharmacophore element CA6” value was 0. Moreover, in assay [1] (setting [3]), the “d(CA1,N1)” value is recorded as 3.47, the “d(CA1,O1)” value came to 4.32, the “d(CA1,O2)” value is 4.20 and the “d(H4,O1)” value was found to be 6.39. For the same molecule, in assay [1] (setting [3]), the “d(H4,O2)” value worked out at 5.35 and the “d(O1,O2)” value is 3.30. In assay [1] (setting [4]), the “d(N2,C2)” value was found to be 1.40, the “d(N2,CA2)” value turned out to be 5.75, the “d(O2,H3)” value worked out at 4.40 and the “d(O2,N2)” value came to 2.83. In assay [1] (Table A6-1 pharmacophore angle), the “a(CA1, O1, O2)” value was 110.77 and the “a(O1, O2, H4)” value was 148.95. The “A(N1, CA1, O1) a)” value in assay [1] (Table A6-1 pharmacophore angle, all compounds with protonatable center N1 except Methyl-amino-pyridine) worked out at 165.45. Moreover, in assay [1] (Table A6-2 pharmacophore angle), the “a(O1, O2, H3)” value is 145.76; the “a(O1, O2, N2)” value came to 144.81; the “a(O2, N2, C2)” value was 124.85; the “a(O2, N2, CA2)” value is reported as 154.55. Further, in assay [1] (setting [5]), the “Pharmacophore torsion angle a(H4, O1, O2, H3)” value was found to be 44.38; the “Pharmacophore torsion angle a(H4, O1, O2, N2)” value was found to be 129.83; the “Pharmacophore torsion angle a(N1, CA1, O2, H4)” value is on record as −89.34; the “Pharmacophore torsion angle a(O1, H4, O2, CA1)” value was −21.94. For the same molecule, in assay [1] (setting [5]), the “Pharmacophore torsion angle a(O1, O2, N2, C2)” value is listed as 124.96. In assay [1] (Table A7-2, between pharmacophore elements of the bound compound), the “Pharmacophore torsion angle a(O1, O2, N2, CA2)” value stood at 129.88. In addition, the “Pharmacophore protein distance to MET_658 (first MET_658 column)” value in assay [1] (Table A8-6, 6th residue column, nearest protein atom in cell to the left) came to 3.34. Further, in assay [1] (Table A8-6, 9th residue column, nearest protein atom in cell to the left), the “Pharmacophore protein distance to MET_658 (second MET_658 column)” value came to 3.79. In assay [1] (setting [6]), the “Pharmacophore protein distance to GLY_528” value was found to be 3.56, the “Pharmacophore protein distance to PHE_529” value was found to be 2.70, the “Pharmacophore protein distance to PRO_608” value is 3.75 and the “Pharmacophore protein distance to SER_611” value amounted to 2.57. For the same molecule, the “Pharmacophore protein distance to TRP_655” value in assay [1] (Table A8-6, pharmacophore elements C6, CA3, O3, H1, nearest protein atom in cell to the left) stood at 3.87. For the same molecule, the concentration for half-maximal inhibition (IC50) in assay [2] was less than 50 nM.

On to `C[C@H](NC(=O)c1cc(-c2ccccc2)c[nH]1)C(=O)NCc1ccc(C(=N)N)cc1` [compound 1030], for which, in assay [1] (Table A1 (H-Bonds)), the “H-bond distance to MASP-2 GLY 656 atom N” value was determined as 3.12 and the “H-bond distance to MASP-2 SER 654 atom O” value was 2.82. In addition, the “H-bond distance to MASP-2 GLY 656 atom O” value in assay [1] (Table A1 (H-Bonds), GLY 656 O) was determined as 2.82. For the same molecule, the “H-bond distance to MASP-2 SER 628 atom OG” value in assay [1] (Table A1 (H-Bonds), SER 628 OG) came out at 3.17. In addition, the “H-bond distance to MASP-2 SER 657 atom O” value in assay [1] (Table A1 (H-Bonds), SER 657 O) was 2.91. Also, the “van der Waals contact distance, MASP-2 HIS 483 atom CD2” value in assay [1] worked out at 3.61. The “van der Waals contact distance, MASP-2 amino acid atom to compound atom” value in assay [1] (Table A2-9 second part, AA atoms N, NE, NH1) is listed as 3.83. Further, the “van der Waals contact distance GLY 656 atom C” value in assay [1] (Table A2-13, MASP-2 GLY 656 C) was found to be 3.73. Besides, the “van der Waals contact distance GLY 656 atom CA” value in assay [1] (Table A2-13, MASP-2 GLY 656 CA) was 3.86. For the same molecule, in assay [1] (Table A2-13, MASP-2 TRP 655 N), the “van der Waals contact distance TRP 655 atom N” value was 3.81. Moreover, in assay [1] (Table A2-14, MASP-2 GLY 656 N), the “van der Waals contact distance GLY 656 atom N” value came out at 3.78. In assay [1] (Table A2-14, MASP-2 SER 657 C, columns c12-c13 (inferred)), the “van der Waals contact distance SER 657 atom C” value stood at 3.82. Moreover, in assay [2], the IC50 is 500 to 5000 nM.

On to `C[C@H](NC(=O)[C@H]1C[C@@H](c2ccccc2)CCN1)C(=O)NCc1ccc(C(=N)N)cc1` [compound 1230, (2R,4S)—N—((S)-1-((4-Carbamimidoylbenzyl)amino)-1-oxopropan-2-yl)-4-phenylpiperidine-2-carboxamide Dihydrochloride], for which the half-inhibitory concentration (IC50) in assay [2] was less than 50 nM.

Regarding `C[C@H](NC(=O)[C@H]1C[C@H](Cc2ccc(-c3ccccc3)cc2)CN1)C(=O)NCc1cnc2[nH]cc(Cl)c2c1` [compound 1356, (2R,4S)-4-([1,1′-Biphenyl]-4-ylmethyl)-N—((S)-1-(((3-chloro-1H-pyrrolo[2,3-b]pyridin-5-yl)methyl)amino)-1-oxopropan-2-yl)pyrrolidine-2-carboxamide], the 50% inhibitory concentration (IC50) in assay [2] lay within 50 to 500 nM.
